Experiment in all cases: NCI-60 cell line screen, 48 h
The subject of test [1] is MCF7 breast.
The subject of test [2] is T-47D breast.
Test [3] concerns HS 578T breast.

Where “and” joins values, the source holds several entries; their conditions need not be identical. Equal values may be shown once.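 Assay format: 96-well plates, 48-hour exposure. Here, GI50 denotes the concentration required for 50% inhibition of growth. At the TGI there is no net growth.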

The results in this text go back to PubChem BioAssay (NCI).

In the case of `CC(C)COC(=O)c1ccc2[nH]c(O)c(C=Nc3ccc(S(N)(=O)=O)cc3)c2c1`, the GI50 is 1.24 µM in test [1], 2.51 µM in test [2] and 1.45 µM in test [3]. Further, the TGI turned out to be 4.5 µM in test [1], 12.6 µM in test [2] and 6.07 µM in test [3].
Take `COc1ccc(Nc2cc(C)nc(N3CCN(c4ccnc5cc(Cl)ccc45)CC3)n2)cc1`: the results for the GI50 in test [1], in test [2] and in test [3] were 0.284 µM, 1.99 µM and 4.04 µM, respectively. In addition, the TGI was 4.51 µM in test [1], 6.59 µM in test [2] and over 100 µM in test [3].
Turning to `O=C1CC(c2ccc(Cl)cc2)Oc2ccccc21` (stereo not drawn), the results for the TGI in test [1], in test [2] and in test [3] were 13.6 µM, over 100 µM and 54.8 µM, respectively.
Consider `CCCNc1nc2ccccc2c2c1S(=O)(=O)c1ccc(Cl)cc1C2=O`, for which the GI50 in test [1] was 1.09 µM; in test [2] it was 1.35 µM; in test [3], 1.21 µM. Besides, the TGI in test [1], in test [2] and in test [3] was over 50 µM in each case.
With `C/C=C(\C)C(=O)N[C@H]1C(O)C[C@]2(C)C3CC[C@@]4(C)C(CC[C@@H]4C(C)N(C)C)C3CCC2C1O` (stereo partly drawn), the GI50 in test [1] is 2.89 µM; in test [2], 2.91 µM; in test [3], 6.56 µM. The values for the TGI in test [1], in test [2] and in test [3] were 17.4 µM, 17.7 µM and 29.6 µM, respectively.
In the case of `c1ccc(CNc2nc(Nc3ccccc3)nc3ccccc23)cc1`, in test [2], the GI50 was 1.72 µM and the TGI amounted to 4.46 µM. Moreover, in test [3], the GI50 was 2.17 µM and the TGI came to 6.01 µM.
Taken in the same sequence, the figures for `ClCc1ccc(Cn2cnc3c(Cl)nc(Cl)nc32)cc1` were 2.18 µM, 5.44 µM, 2.13 µM and 5.77 µM.
As to `COc1ccc2nc(NC(=O)c3cccnc3Nc3cc(OC)c(OC)c(OC)c3)sc2c1`, the results for the GI50 in test [1], in test [2] and in test [3] were 0.515 µM, 5.06 µM and 5.77 µM, respectively. In addition, the TGI was 13.6 µM in test [1], 51.3 µM in test [2] and 30.9 µM in test [3].
Regarding `Cn1cnc([N+](=O)[O-])c1Sc1ncn[nH]1`, the figures for the GI50 in test [1], in test [2] and in test [3] were over 100 µM, 17 µM and 52.8 µM, respectively. Further, the TGI in test [1], in test [2] and in test [3] was over 100 µM throughout.
In the case of `Cc1cccc2c(N)c3ccccc3nc12`, the GI50 in test [1] is 1.32 µM; in test [2], 2.19 µM; in test [3], 3.44 µM. Moreover, the figures for the TGI in test [1], in test [2] and in test [3] were 11.6 µM, 6.85 µM and 17.4 µM, respectively.
For `C=CCCCc1ccc(C(O)CCCCCCCCCCCC)o1` (stereo not drawn), the GI50 in test [1] is 17.6 µM; in test [2], 15.1 µM; in test [3], 25.5 µM. In addition, the TGI came out at 48.3 µM in test [1], 34.6 µM in test [2] and 55.2 µM in test [3].
`CCN(CC)CCOc1ccc(C(=O)/C=C\c2ccc(Cl)cc2Cl)cc1`: the figures for the GI50 in test [1], in test [2] and in test [3] were 1.29 µM, 11.9 µM and 9.47 µM, respectively. Also, the TGI was found to be 3.12 µM in test [1], 33.6 µM in test [2] and 32 µM in test [3].
In the case of `CN(C)CCN1C(=O)c2cccc3cccc(c23)C1=O`, the GI50 is 9.31 µM in test [1], over 25 µM in test [2] and over 25 µM in test [3]. The TGI in test [1], in test [2] and in test [3] was over 25 µM in each case.
For `O=C1NCCS(=O)(=O)/C1=C\C=C\c1cccc(C(F)(F)F)c1`, the GI50 in test [1] was 0.188 µM; in test [2] it was 3.51 µM; in test [3], 6.81 µM. Moreover, the TGI in test [1] came to 11 µM; in test [2] it was 17.3 µM; in test [3], 30.7 µM.
For the molecule `Cn1c(=O)c(Oc2ccc(F)cc2F)cc2cnc(NCCS(C)(=O)=O)nc21`, the GI50 in test [1], in test [2] and in test [3] was over 25 µM in each case. The TGI in test [1], in test [2] and in test [3] was over 25 µM each time.
Consider `CCN(CC)CCSCCCNc1c2ccc(Cl)cc2nc2ccc(OC)cc12`, for which the GI50 in test [1] is 0.791 µM; in test [2], 2.05 µM; in test [3], 2.12 µM. Moreover, the TGI in test [1] turned out to be 3.26 µM; in test [2] it was 4.82 µM; in test [3], 5.28 µM.
Take `COc1ccc(-c2nn(-c3cccc(NC(=O)c4ccc(N5CCOCC5)c(C(F)(F)F)c4)c3)cc2-c2ccncc2)cc1Cl`: the GI50 in test [1] was 3.11 µM; in test [2], 4.5 µM; in test [3], 2.65 µM. In addition, the TGI in test [1], in test [2] and in test [3] was over 50 µM throughout.
On to `O=C1OC(CN2CCOCC2)CN1/N=C/c1ccc([N+](=O)[O-])o1` (stereo not drawn), for which the TGI in test [1], in test [2] and in test [3] was over 100 µM each time.
For `COC(=O)[C@@H](C)C[C@H](Cc1ccccc1)NC(=O)c1csc([C@@H](C[C@H](C(C)C)N(C)C(=O)[C@H](C)NC(=O)[C@H]2CCCCN2C)OC(C)=O)n1`, in test [1], the GI50 is 0.437 µM and the TGI was over 25 µM. In test [3], the GI50 is 1.39 µM and the TGI is over 25 µM.
Consider `CNC(=O)OCC1C2=C(C(=O)C(C)=C(N)C2=O)N2CC3C(N3C)C12OC` (stereo not drawn), for which the TGI in test [1] and in test [2] was over 100 µM in each case.
Regarding `O=C1C=CC(O)C2C1CC13SSC4(CC5C(=O)C=CC(O)C5N4C1=O)C(=O)N23` (stereo not drawn), the figures for the TGI in test [1], in test [2] and in test [3] were over 100 µM, 2.53 µM and 2.26 µM, respectively.
As for `Cc1nc(Nc2nc3ccccc3o2)nc(-c2cccc([N+](=O)[O-])c2)c1C(=O)Nc1ccc(F)c(Cl)c1`, the GI50 was 2.04 µM in test [1], 1.41 µM in test [2] and 2.87 µM in test [3]. Also, the results for the TGI in test [1], in test [2] and in test [3] were 9.73 µM, 9.18 µM and 38.8 µM, respectively.
Consider `CO[C@H]1CC(c2ccc[nH]2)=N[C@]12O[C@@H](C)C[C@@H]1CCCCCCCc3ccc([nH]3)[C@H]12`, for which the figures for the GI50 in test [1], in test [2] and in test [3] were 0.968 µM, 0.732 µM and 0.888 µM, respectively. Moreover, the TGI in test [1] is over 16.7 µM; in test [2] it was over 19.2 µM; in test [3], 7.11 µM.
For the molecule `COc1cc(/C=C/C(=O)c2cccnc2Nc2ccc(F)cc2)cc(OC)c1OC`, the GI50 is 2.44 µM in test [1], 3.96 µM in test [2] and 3.68 µM in test [3]. The results for the TGI in test [1], in test [2] and in test [3] were 13.6 µM, 25 µM and 95.2 µM, respectively.
In the case of `Cc1c(Sc2ccccc2)[n+](=O)c2cc(Cl)c(Cl)cc2n1[O-]`, the GI50 in test [1] is 38.3 µM; in test [2] it was 36.2 µM; in test [3], over 100 µM. The TGI in test [1], in test [2] and in test [3] was over 100 µM each time.
For `CCn1c2ccccc2c2cc(C(O)c3cccc4ncccc34)ccc21` (stereo not drawn), the GI50 in test [1] is 0.0331 µM; in test [3], 0.0505 µM. The TGI in test [1] is 20.2 µM; in test [3], 23.5 µM.
As for `CC(C)CCN[C@@H]1CCc2cc(O)c(N3CC(=O)NS3(=O)=O)c(F)c2C1`, the GI50 in test [1], in test [2] and in test [3] was over 100 µM in each case. Further, the TGI in test [1], in test [2] and in test [3] was over 100 µM each time.
Consider `Clc1nc(Cl)c2ncn(Cc3ccc(Cn4cnc5c(Cl)nc(Cl)nc54)cc3)c2n1`, for which the GI50 in test [1] was 2.22 µM; in test [2] it was 12.4 µM. In addition, the TGI is 14.9 µM in test [1], over 36.7 µM in test [2] and over 40.2 µM in test [3].
In the case of `OCCN1CCN(CC/C=C2\c3ccccc3Sc3ccc(Cl)cc32)CC1`, the GI50 in test [1] is 1.52 µM and 2.21 µM; in test [2], 2.9 µM and 2.79 µM; in test [3], 2.43 µM and 2.25 µM. Moreover, the TGI in test [1] is 3.34 µM and 5.45 µM; in test [2] it was 10.4 µM and 11.5 µM; in test [3], 7.02 µM and 7.94 µM.
For the molecule `Cc1cc(OCc2nnc3n2N=C(c2ccc(Cl)cc2Cl)CS3)ccc1Cl`, the GI50 in test [1] was 39.1 µM; in test [2], 40.5 µM; in test [3] it was 37.9 µM. The TGI in test [1], in test [2] and in test [3] was over 100 µM in each case.
As to `COc1cc2c3c(n(CCCN=[N+]=[N-])c(=O)c2cc1OC)-c1ccc(N(C)C)cc1C3=O`, the GI50 in test [1], in test [2] and in test [3] was over 100 µM in each case. The TGI in test [1], in test [2] and in test [3] was over 100 µM throughout.
For the molecule `COc1ccc(Nc2c3ccccc3nc3[nH]c4ccccc4c23)cc1`, the GI50 in test [1] is 7.95 µM; in test [3] it was 21 µM. Further, the TGI in test [1] and in test [3] was over 50 µM in each case.
